In patent US7759326B2, “Aminophosphonic acid derivative, salt thereof, and modulator of S1P receptor” (Kyorin Pharmaceutical Co., Ltd., priority 2003, dated 2010):
Structures can show the parent of a compound that is named as a salt.

Legend:
hS1P1 receptors = target: T1, hS1P1 receptors (Homo sapiens, UniProt P21453); assay: Intracellular Ca2+ mobilization in CHO cells expressing human S1P receptors (hS1P1); type: cell-based; conditions: read-out: S1P1 (EC50 class, intracellular Ca2+ mobilization)
T1 construct: expressed in transfected cells; host or cells: CHO cells (Geneticin-selected)
T1 sequence (P21453 whole entry): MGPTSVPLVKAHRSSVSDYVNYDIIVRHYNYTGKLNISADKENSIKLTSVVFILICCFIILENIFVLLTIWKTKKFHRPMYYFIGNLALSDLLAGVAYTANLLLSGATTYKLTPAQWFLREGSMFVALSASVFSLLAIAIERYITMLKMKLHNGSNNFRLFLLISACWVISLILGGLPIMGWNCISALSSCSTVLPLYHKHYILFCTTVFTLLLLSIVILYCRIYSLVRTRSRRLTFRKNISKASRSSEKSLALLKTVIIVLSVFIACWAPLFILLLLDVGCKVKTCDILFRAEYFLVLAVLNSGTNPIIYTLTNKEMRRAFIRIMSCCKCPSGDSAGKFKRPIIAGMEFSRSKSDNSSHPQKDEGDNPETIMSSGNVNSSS
Method: (§1) Test for the Ability of Test Compounds to Induce Intracellular Ca^2+ Mobilization in Cells Expressing Human S1P (Sphingosine-1-Phosphate) Receptors
(§2) CHO cells expressing human S1P receptors (i.e., CHO cells expressing hS1P1 receptors or hS1P3 receptors) were subcultured on Ham's F-12 medium supplemented with 10% fetal bovine serum and 200 μg/mL Geneticin. The cells were seeded on a 96-well black clear bottom plate (COSTAR) at 4×10^4 cells/well and were cultured overnight at 37° C. in 5% CO2. A fluorescent reagent that emits fluorescence upon binding to Ca^2+ (Calcium Screening Kit (DOJINDO)) was added to the culture and the cells were further cultured for 60 min at 37° C. in 5% CO2. After culturing, microplate spectrofluorometer (FLEX station, MOLECULAR DEVICE) was used to measure the fluorescence intensity at an excitation wavelength of 485 nm and a detection wavelength of 525 nm. S1P or a test compound adjusted with cultural medium to a concentration 10 times higher than the final concentration (final DMSO concentration=0.1%). Each test compound solution was added 18 sec. after beginning of the measurement of fluorescence. The fluorescence intensity was measured every 1.5 sec for 100 sec. For each test compound, the difference between the maximum fluorescence intensity and the minimum fluorescence intensity (i.e., increase in fluorescence) was determined from the measurements. The rate of fluorescence increase (%) for each test compound was calculated by the difference (100%) of the fluorescence increase between solvent only and S1P (10^−6M). Using this value as an index of the ability of the test compound to induce intracellular Ca^2+ mobilization, EC50 was determined by PRISM software (GraphPad).

hS1P3 receptors = target: T2, hS1P3 receptors (Homo sapiens, UniProt Q99500); assay: Intracellular Ca2+ mobilization in CHO cells expressing human S1P receptors (hS1P3); type: cell-based; conditions: read-out: S1P3 (EC50 class, intracellular Ca2+ mobilization)
T2 construct: expressed in transfected cells; host or cells: CHO cells (Geneticin-selected)
T2 sequence (Q99500 whole entry): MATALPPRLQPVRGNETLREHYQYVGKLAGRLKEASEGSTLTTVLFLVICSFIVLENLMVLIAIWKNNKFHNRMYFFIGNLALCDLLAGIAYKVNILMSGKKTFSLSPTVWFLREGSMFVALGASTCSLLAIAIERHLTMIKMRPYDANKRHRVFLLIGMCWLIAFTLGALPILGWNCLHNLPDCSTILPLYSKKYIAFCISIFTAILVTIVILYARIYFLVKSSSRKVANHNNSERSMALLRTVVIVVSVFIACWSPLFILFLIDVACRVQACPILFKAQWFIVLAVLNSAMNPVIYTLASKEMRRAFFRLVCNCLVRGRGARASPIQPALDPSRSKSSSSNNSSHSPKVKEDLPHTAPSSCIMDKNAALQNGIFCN
Method: as §1, §2

[1] = system: host vs. graft rejection in mice; assay: Inhibitory effects on host vs. graft rejection in mice (right popliteal lymph node weight); type: in vivo, C3H/HeN mice; conditions: Mus musculus, Dose 0.03 mg/kg
Method: Inhibitory Effects of Test Compounds on Host Vs. Graft Rejection in Mice
This experiment was performed according to the method described in Transplantation 55(3) (1993): 578-591. Spleens were collected from 6 to 16 week old male BALB/c mice (CHARLES RIVER JAPAN). The spleens were placed in an RPMI-1640 medium (SIGMA) and were gently pressed between two slide glasses and then passed through a cell strainer (70 μm, Falcon) to form a cell suspension. The suspension was then centrifuged and the supernatant was discarded. An ammonium chloride-Tris isotonic buffer was added to the suspension to lyse erythrocytes. The cells were then centrifuged three times in RPMI-1640 medium for washing and were resuspended in an RPMI-1640 medium. To this suspension, mitomycin C (KYOWA HAKKO KOGYO Co., Ltd.) was added to a final concentration of 25 μg/mL and the suspension was incubated for 30 minutes at 37° C. in a 5% CO2 atmosphere. The cells were centrifuged three times in RPMI-1640 medium for washing and were resuspended in an RPMI-1640 medium so that the medium would contain 2.5×10^8 cells/mL. This suspension served as a “stimulation cell suspension.” Using a 27 G needle with a microsyringe (Hamilton), 20 μL (5×10^6 cells/mouse) of the stimulation cell suspension was subcutaneously injected into the right hind footpad of 6 to 8 week old male C3H/HeN mice (CLEA JAPAN). Normal control group was injected with RPMI-1640 medium alone. 4 days after the injection, right popliteal lymph nodes were collected and were weighed on a Mettler AT201 electronic scale (METTLER TOLEDO Co., Ltd.). Each animal was intraperitoneally administered a test compound once a day for four consecutive days starting on the day of the injection of the stimulation cells (i.e., total of 4 times). Control groups were administered the same vehicle as that used in the preparation of each test compound. The inhibition (%) was determined using the following formula {[Weight of right popliteal lymph nodes of positive control group]−[Weight of right popliteal lymph nodes of test compound group]×100}/{[Weight of right popliteal lymph nodes of positive control group]−[Weight of right popliteal lymph nodes of normal control group]} Formula 1

Compound | melting point [°C] | EC50 (hS1P1 receptors) [nM] | EC50 (hS1P3 receptors) [nM] | inhibition in vivo at 0.03 mg/kg [1] [%]
CC(N)(/C=C/P(=O)(O)O)CCCc1ccc(Sc2cccc(OCc3ccccc3)c2)cc1Cl (racemic) [Example 261, 3-amino-6-[4-(3-benzyloxyphenylthio)-2-chlorophenyl]-3-methyl-1-hexenylphosphonic acid] | 243 to 245 | 100 to 1000 | ≥ 1000 | –
COP(=O)(OC)OCC(C)(CCc1ccc(Sc2cccc(OCc3ccccc3)c2)cc1Cl)NC(=O)OC(C)(C)C (single isomer, unassigned; (+)) [Example 247, (+)-4-[4-(3-benzyloxyphenylthio)-2-chlorophenyl]-2-t-butoxycarbonylamino-1-dimethoxyphosphoryloxy-2-methylbutane] | – | – | – | 63
CC(N)(CCc1ccc(Sc2cccc(OCc3ccccc3)c2)cc1Cl)COP(=O)(O)O (single isomer, unassigned; (+)) [Example 249, (+)-2-amino-4-[4-(3-benzyloxyphenylthio)-2-chlorophenyl]-2-methylbutylphosphonate monoester] | – | 10 to 100 | < 10 | –
CC(N)(CCCc1ccc(Sc2cccc(OCc3ccccc3)c2)cc1Cl)COP(=O)(O)O (single isomer, unassigned; (-)) [Example 240, (−)-2-amino-5-[4-(3-benzyloxyphenylthio)-2-chlorophenyl]-2-methylpentylphosphonate monoester] | 200 to 203 | 10 to 100 | 100 to 1000 | –
CC(N)(CCc1ccc(Sc2cccc(OCc3ccccc3)c2)cc1Cl)COP(=O)(O)O (single isomer, unassigned; (-)) [Example 250, (−)-2-amino-4-[4-(3-benzyloxyphenylthio)-2-chlorophenyl]-2-methylbutylphosphonate monoester] | – | 100 to 1000 | ≥ 1000 | –
NC(/C=C(/F)P(=O)(O)O)CCc1ccc(Sc2cccc(OCc3ccccc3)c2)cc1Cl (stereo not shown) [Example 253, (Z)-3-amino-5-[4-(3-benzyloxyphenylthio)-2-chlorophenyl]-1-fluoro-1-pentenylphosphonic acid] | 285 to 288 | 100 to 1000 | 100 to 1000 | –
NC(/C=C(\F)P(=O)(O)O)CCc1ccc(Sc2cccc(OCc3ccccc3)c2)cc1Cl (stereo not shown) [Example 254, (E)-3-amino-5-[4-(3-benzyloxyphenylthio)-2-chlorophenyl]-1-fluoro-1-pentenylphosphonic acid] | 288 to 290 | 10 to 100 | ≥ 1000 | –
CC(N)(CCCc1ccc(Sc2cccc(OCc3ccccc3)c2)cc1Cl)CCP(=O)(O)O (stereo not shown) [Example 260, 3-amino-6-[4-(3-benzyloxyphenylthio)-2-chlorophenyl]-3-methylhexylphosphonic acid] | 195 to 197 | 10 to 100 | 100 to 1000 | –
NC(/C=C/P(=O)(O)O)(CO)CCCc1ccc(Sc2cccc(OCc3ccccc3)c2)cc1Cl (stereo not shown) [Example 263, 3-amino-[4-(3-benzyloxyphenylthio)-2-chlorophenyl]-3-hydroxymethyl-1-hexenylphosphonic acid] | 243 to 246 | < 10 | 100 to 1000 | –
NC(CO)(CCCc1ccc(Sc2cccc(OCc3ccccc3)c2)cc1Cl)CCP(=O)(O)O (stereo not shown) [Example 265, 3-amino-6-[4-(3-benzyloxyphenylthio)-2-chlorophenyl]-3-hydroxymethylhexylphosphonic acid] | 193 to 196 | < 10 | 100 to 1000 | –
NC(/C=C/P(=O)(O)O)(CO)CCc1ccc(Sc2cccc(OCc3ccccc3)c2)cc1Cl (stereo not shown) [Example 267, 3-amino-5-[4-(3-benzyloxyphenylthio)-2-chlorophenyl]-3-hydroxymethyl-1-pentenylphosphonic acid] | 245 to 248 | < 10 | ≥ 1000 | –
NC(CO)(CCc1ccc(Sc2cccc(OCc3ccccc3)c2)cc1Cl)CCP(=O)(O)O (stereo not shown) [Example 269, 3-amino-5-[4-(3-benzyloxyphenylthio)-2-chlorophenyl]-3-hydroxymethylpentylphosphonic acid] | 205 to 208 | 10 to 100 | ≥ 1000 | –
CCCC(N)(/C=C/P(=O)(OC)OC)CCCc1ccc(Sc2cccc(OCc3ccccc3)c2)cc1Cl (stereo not shown) [Example 280, Dimethyl 3-amino-6-[4-(3-benzyloxyphenylthio)-2-chlorophenyl]-3-propyl-1-hexenylphosphonate hydrochloride] | – | 100 to 1000 | 100 to 1000 | –
CCCC(N)(/C=C/P(=O)(O)O)CCCc1ccc(Sc2cccc(OCc3ccccc3)c2)cc1Cl (stereo not shown) [Example 283, 3-amino-6-[4-(3-benzyloxyphenylthio)-2-chlorophenyl]-3-propyl-1-hexenylphosphonic acid] | – | 10 to 100 | 10 to 100 | –
CCCC(N)(CCCc1ccc(Sc2cccc(OCc3ccccc3)c2)cc1Cl)CCP(=O)(O)O (stereo not shown) [Example 284, 3-amino-6-[4-(3-benzyloxyphenylthio)-2-chlorophenyl]-3-propylhexylphosphonic acid] | – | 10 to 100 | 100 to 1000 | –
Cl.NC(CO)(CCCc1ccc(Sc2cccc(OCc3ccccc3)c2)cc1Cl)CP(=O)(O)O (stereo not shown) [Example 286, 2-amino-5-[4-(3-benzyloxyphenylthio)-2-chlorophenyl]-2-hydroxymethylpentylphosphonate hydrochloride] | 98 to 101 | 10 to 100 | ≥ 1000 | –
NC(CO)(CCCCc1ccc(Sc2cccc(OCc3ccccc3)c2)cc1Cl)CCP(=O)(O)O (stereo not shown) [Example 289, 3-amino-[4-(3-benzyloxyphenylthio)-2-chlorophenyl]-3-hydroxymethylheptylphosphonic acid] | 180 to 183 | – | – | –
NC(/C=C/P(=O)(O)O)(CO)CCCCc1ccc(Sc2cccc(OCc3ccccc3)c2)cc1Cl (stereo not shown) [Example 290, 3-amino-[4-(3-benzyloxyphenylthio)-2-chlorophenyl]-3-hydroxymethyl-1-heptenylphosphonic acid] | 258 to 260 | < 10 | 10 to 100 | –
NC(CO)(CCCc1ccc(Sc2cccc(OCc3ccccc3)c2)cc1Cl)C(O)C(F)(F)P(=O)(O)O (stereo not shown) [Example 293, 3-amino-6-[4-(3-benzyloxyphenylthio)-2-chlorophenyl]-1,1-difluoro-2-hydroxy-3-hydroxymethylhexylphosphonic acid] | – | 100 to 1000 | 100 to 1000 | –
NC(CO)(CCCc1ccc(Oc2cccc(C(F)(F)F)c2)cc1Cl)CCP(=O)(O)O (stereo not shown) [Example 296, 3-amino-6-[2-chloro-4-(3-trifluoromethylphenoxy)phenyl]-3-hydroxymethylhexylphosphonic acid] | – | 10 to 100 | ≥ 1000 | –
NC(CO)(CCCc1ccc(Sc2cccc(C(F)(F)F)c2)cc1Cl)COP(=O)(O)O (stereo not shown) [Example 299, 2-amino-5-[2-chloro-4-(3-trifluoromethylphenylthio)phenyl]-2-hydroxymethylpentylphosphonate monoester] | – | 10 to 100 | ≥ 1000 | –
NC(CO)(CCCc1ccc(Oc2cccc(C(F)(F)F)c2)cc1Cl)COP(=O)(O)O (stereo not shown) [Example 300] | – | 10 to 100 | ≥ 1000 | –
NC(CO)(CCc1ccc(Sc2ccc(OCc3ccccc3)cc2)cc1Cl)CCP(=O)(O)O (stereo not shown) [Example 308, 3-amino-5-[4-(4-benzyloxyphenylthio)-2-chlorophenyl]-3-hydroxymethylpentylphosphonic acid] | – | 100 to 1000 | ≥ 1000 | –
